Experimental data published in patent US6362369B1, “Phthalic acid diamide derivatives fluorine-containing aniline compounds as starting material, agricultural and horticultural insecticides, and a method for application of the insecticides” (Nihon Nohyaku Co., Ltd., priority 1997, dated 2002).

Tests used:
[1] = tested on: diamondback moth (Plutella xylostella); assay: Insecticidal effect on diamondback moth (Test Example 1); type: in vivo; settings: for Insecticidal effect on diamondback moth (Test Example 1), judged grade: mortality judged according to the criterion shown in Test Example 1; for Insecticidal effect (Test Example 1), judged from mortality / Insecticidal effect, Test Example 1: diamondback moth; for Insecticidal effect (Test Example 1), judged from mortality: judged by the criterion of Test Example 1
Summary of the method: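 Chinese cabbage seedlings carrying eggs laid by released adult moths were immersed in treatment, air-dried and held at 25° C. Hatched insects were counted six days after immersion, and mortality was calculated and scored against a fixed criterion. Three replicate groups of 10 insects were used.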

[2] = tested on: rice leafroller (Cnaphalocrocis medinalis); assay: Insecticidal effect on rice leafroller (Test Example 3); type: in vivo; settings: 500 ppm, 25° C., humidity 70%; for Insecticidal effect on rice leafroller (Test Example 3), judged grade / Insecticidal effect (Test Example 3), judged from mortality: rice lamina dip; for Insecticidal effect on rice leafroller (Test Example 3), judged grade: third-instar larvae; for Insecticidal effect on rice leafroller (Test Example 3), judged grade / Insecticidal effect, Test Example 3: four days after inoculation; for Insecticidal effect (Test Example 3), judged from mortality: 4 days after inoculation; for Insecticidal effect, Test Example 3: rice lamina immersed
Summary of the method: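 Groups of 10 third-instar larvae, in triplicate, are placed on air-dried lamina resting on wet filter paper. Incubation runs four days at 25° C with 70% humidity before survivors and dead are tallied.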

[3] = third-instar larvae of rice leafroller
[4] = judged by the mortality criterion of Test Example 1
[5] = mortality judged by criterion of Test Example 1
[6] = rice leafroller third-instar larvae

`Cc1ccc(C)c(NC(=O)c2cccc([N+](=O)[O-])c2C(=O)NC(C)C)c1` [compound 649] was tested, and the “Insecticidal effect on diamondback moth (Test Example 1), judged grade” value (“Insecticidal effect on diamondback moth” for short) [1] was “A (100)” and the “Insecticidal effect on rice leafroller (Test Example 3), judged grade” value (from here on “Insecticidal effect on rice leafroller”) [2] was “C (89-80)”.

In the case of `Cc1cc(C(F)(F)C(F)(F)F)ccc1NC(=O)c1c(Cl)cccc1C(=O)N[C@H](C)CO` [compound 1461], the “Insecticidal effect (Test Example 1), judged from mortality” value [1] is reported as “A (100)” and the “Insecticidal effect (Test Example 3), judged from mortality” value [2, 3] is reported as “A (100)”.

`CC(C)NC(=O)c1c(C(=O)Nc2cccc(SC(F)(F)F)c2)cccc1[N+](=O)[O-]` [compound 623] was tested, and the “Insecticidal effect on diamondback moth” value [1] was “A (100)” and the “Insecticidal effect on rice leafroller” value [2] was “A (100)”.

For `Cc1cc(Cl)ccc1NC(=O)c1cc(F)ccc1C(=O)NC(C)C` [compound 532], the “Insecticidal effect on diamondback moth” value [1] was “A (100)” and the “Insecticidal effect on rice leafroller” value [2] was “A (100)”.

For `Cc1cc(Cl)ccc1NC(=O)c1c(Br)ccc(Br)c1C(=O)NC(C)C` [compound 341], the “Insecticidal effect, Test Example 1” value [1, 4] was “A (100)” and the “Insecticidal effect, Test Example 3” value [2, 3] was “A (100)”.

In the case of `Cc1cc(OC(F)(F)F)ccc1NC(=O)c1c(F)cccc1C(=O)NC(C)C` [compound 564], the “Insecticidal effect on diamondback moth” value [1] is reported as “A (100)” and the “Insecticidal effect on rice leafroller” value [2] is reported as “B (99-90)”.

For `CCCN(CC)C(=O)c1c(F)cccc1C(=O)Nc1ccc(C(F)(F)C(F)(F)F)cc1Cl` [compound 1584], the “Insecticidal effect (Test Example 1), judged from mortality” value [1] was “A (100)” and the “Insecticidal effect (Test Example 3), judged from mortality” value [2, 3] was “A (100)”.

For `Cc1cc(Cl)ccc1NC(=O)c1cccc(C)c1C(=O)NC(C)C` [compound 750], the “Insecticidal effect on diamondback moth” value [1] was “A (100)” and the “Insecticidal effect on rice leafroller” value [2] was “A (100)”.

In the case of `CC(C)NC(=O)c1cccc(I)c1C(=O)Nc1ccc(OC(F)(F)F)cc1Br` [compound 466], the “Insecticidal effect on diamondback moth” value [1] is reported as “A (100)” and the “Insecticidal effect on rice leafroller” value [2] is reported as “A (100)”.

In the case of `CC(C)NC(=O)c1cccc(Cl)c1C(=O)Nc1ccc(OC(F)F)cc1` [compound 200], the “Insecticidal effect, Test Example 1” value [1, 4] is reported as “A (100)” and the “Insecticidal effect, Test Example 3” value [2, 3] is reported as “A (100)”.

In the case of `CC(C)NC(=O)c1c(I)cccc1C(=O)Nc1cccc(C(F)(F)F)c1` [compound 348], the “Insecticidal effect, Test Example 1” value [1, 4] is reported as “A (100)” and the “Insecticidal effect, Test Example 3” value [2, 3] is reported as “A (100)”.

For `COc1ccc(NC(=O)c2cccc([N+](=O)[O-])c2C(=O)NC(C)C)c(C)c1` [compound 688], the “Insecticidal effect on diamondback moth” value [1] was “A (100)” and the “Insecticidal effect on rice leafroller” value [2] was “A (100)”.

With `COc1c(C)ccc(NC(=O)c2cccc([N+](=O)[O-])c2C(=O)NC(C)C)c1C` [compound 694] the “Insecticidal effect on diamondback moth” value [1] was “A (100)” and the “Insecticidal effect on rice leafroller” value [2] was “A (100)”.

`CCCN(CCC)C(=O)c1c(I)cccc1C(=O)Nc1ccc(OC(F)F)cc1C` [compound 1157] was tested, and the “Insecticidal effect, Test Example 1” value [1, 5] was “A (100)” and the “Insecticidal effect, Test Example 3” value [2, 6] was “A (100)”.

In the case of `Cc1cc(Cl)ccc1NC(=O)c1c(F)cccc1C(=O)NC(C)C` [compound 545], the “Insecticidal effect on diamondback moth” value [1] is reported as “A (100)” and the “Insecticidal effect on rice leafroller” value [2] is reported as “A (100)”.

With `CC(C)NC(=O)c1ccccc1C(=O)Nc1ccc(C(F)(F)F)cc1` [compound 25] the “Insecticidal effect, Test Example 1” value [1, 4] was “A (100)” and the “Insecticidal effect, Test Example 3” value [2, 3] was “A (100)”.

`Cc1nc(-c2cccc(NC(=O)c3cccc(I)c3C(=O)NC(C)C)c2)co1` [compound 1659] was tested, and the “Insecticidal effect (Test Example 1), judged from mortality” value [1] was “A (100)” and the “Insecticidal effect (Test Example 3), judged from mortality” value [2, 3] was “A (100)”.

`CCc1cc(OC(F)(F)F)ccc1NC(=O)c1ccccc1C(=O)NC(C)C` [compound 1208] was tested, and the “Insecticidal effect, Test Example 1” value [1, 5] was “A (100)” and the “Insecticidal effect, Test Example 3” value [2, 6] was “A (100)”.

With `Cc1cc(OC(F)(F)F)ccc1NC(=O)c1ccc(F)c(F)c1C(=O)NC(C)(C)C` [compound 1284] the “Insecticidal effect, Test Example 1” value [1, 5] was “A (100)” and the “Insecticidal effect, Test Example 3” value [2, 6] was “A (100)”.

`CC(C)NC(=O)c1c(C(=O)Nc2cc(Cl)ccc2Cl)cccc1[N+](=O)[O-]` [compound 634] was tested, and the “Insecticidal effect on diamondback moth” value [1] was “A (100)” and the “Insecticidal effect on rice leafroller” value [2] was “D (79-50)”.

In the case of `CC(C)NC(=O)c1c(I)cccc1C(=O)Nc1ccc2c(c1Cl)OC(F)(F)C(F)(F)O2` [compound 1626], the “Insecticidal effect (Test Example 1), judged from mortality” value [1] is reported as “A (100)” and the “Insecticidal effect (Test Example 3), judged from mortality” value [2, 3] is reported as “A (100)”.

With `Cc1cc(C(F)(F)C(F)(F)F)ccc1NC(=O)c1cccc(I)c1C(=O)N1CCCC1` [compound 1047] the “Insecticidal effect, Test Example 1” value [1, 5] was “A (100)” and the “Insecticidal effect, Test Example 3” value [2, 6] was “A (100)”.

With `Cc1ccc(Cl)cc1NC(=O)c1c(Br)cccc1C(=O)NC(C)C` [compound 307] the “Insecticidal effect, Test Example 1” value [1, 4] was “A (100)” and the “Insecticidal effect, Test Example 3” value [2, 3] was “D (79-50)”.

In the case of `Cc1cc(NC(=O)c2cccc([N+](=O)[O-])c2C(=O)NC(C)C)ccc1Br` [compound 680], the “Insecticidal effect on diamondback moth” value [1] is reported as “A (100)” and the “Insecticidal effect on rice leafroller” value [2] is reported as “D (79-50)”.

With `CCC(O)CNC(=O)c1c(Cl)cccc1C(=O)Nc1ccc(C(F)(F)C(F)(F)F)cc1C` (stereo not shown) [compound 1318] the “Insecticidal effect, Test Example 1” value [1, 5] was “A (100)” and the “Insecticidal effect, Test Example 3” value [2, 6] was “A (100)”.

For `Cc1cc(C(F)(F)C(F)(F)F)ccc1NC(=O)c1cccc(Cl)c1C(=O)NCc1ccncc1` [compound 1394], the “Insecticidal effect, Test Example 1” value [1, 5] was “A (100)” and the “Insecticidal effect, Test Example 3” value [2, 6] was “A (100)”.

For `Cc1ccccc1CNC(=O)c1c(Cl)cccc1C(=O)Nc1ccc(C(F)(F)C(F)(F)F)cc1C` [compound 1337], the “Insecticidal effect, Test Example 1” value [1, 5] was “A (100)” and the “Insecticidal effect, Test Example 3” value [2, 6] was “A (100)”.

`CCCN(CC)C(=O)c1c(I)cccc1C(=O)Nc1ccc(OC(F)F)cc1C` [compound 1575] was tested, and the “Insecticidal effect (Test Example 1), judged from mortality” value [1] was “A (100)” and the “Insecticidal effect (Test Example 3), judged from mortality” value [2, 3] was “A (100)”.

`Cc1ccc(NC(=O)c2cccc([N+](=O)[O-])c2C(=O)NC(C)C)c(C)c1Cl` [compound 670] was tested, and the “Insecticidal effect on diamondback moth” value [1] was “A (100)” and the “Insecticidal effect on rice leafroller” value [2] was “D (79-50)”.

For `CC(C)NC(=O)c1c(C(=O)Nc2cccc(OC(F)F)c2)cccc1[N+](=O)[O-]` [compound 616], the “Insecticidal effect on diamondback moth” value [1] was “A (100)” and the “Insecticidal effect on rice leafroller” value [2] was “D (79-50)”.

`Cc1cc(OC(F)F)ccc1NC(=O)c1cccc(SCC(F)(F)F)c1C(=O)NC(C)C` [compound 797] was tested, and the “Insecticidal effect on diamondback moth” value [1] was “A (100)” and the “Insecticidal effect on rice leafroller” value [2] was “C (89-80)”.

In the case of `CCCN(CC)C(=O)c1c(F)cccc1C(=O)Nc1ccc(OC(F)(F)F)cc1` [compound 1582], the “Insecticidal effect (Test Example 1), judged from mortality” value [1] is reported as “A (100)” and the “Insecticidal effect (Test Example 3), judged from mortality” value [2, 3] is reported as “A (100)”.

`Cc1cc(SC(F)F)ccc1NC(=O)c1cccc([N+](=O)[O-])c1C(=O)NC(C)C` [compound 722] was tested, and the “Insecticidal effect on diamondback moth” value [1] was “A (100)” and the “Insecticidal effect on rice leafroller” value [2] was “A (100)”.

In the case of `CC(C)NC(=O)c1cccc(Cl)c1C(=O)Nc1ccc(F)cc1F` [compound 210], the “Insecticidal effect, Test Example 1” value [1, 4] is reported as “A (100)” and the “Insecticidal effect, Test Example 3” value [2, 3] is reported as “D (79-50)”.

For `Cc1cccc(NC(=O)c2cccc([N+](=O)[O-])c2C(=O)NC(C)C)c1C` [compound 647], the “Insecticidal effect on diamondback moth” value [1] was “A (100)” and the “Insecticidal effect on rice leafroller” value [2] was “B (99-90)”.

`CC(C)NC(=O)c1c(C(=O)Nc2ccc(C(F)(F)F)cc2Cl)cccc1[N+](=O)[O-]` [compound 660] was tested, and the “Insecticidal effect on diamondback moth” value [1] was “A (100)” and the “Insecticidal effect on rice leafroller” value [2] was “A (100)”.

In the case of `Cc1cc(OC(F)F)ccc1NC(=O)c1cccc([S+](C)[O-])c1C(=O)NC(C)C` (stereo not shown) [compound 791], the “Insecticidal effect on diamondback moth” value [1] is reported as “A (100)” and the “Insecticidal effect on rice leafroller” value [2] is reported as “A (100)”.

In the case of `CC(C)NC(=O)c1ccccc1C(=O)Nc1ccc(C(F)(F)F)cc1Cl` [compound 45], the “Insecticidal effect, Test Example 1” value [1, 4] is reported as “A (100)” and the “Insecticidal effect, Test Example 3” value [2, 3] is reported as “A (100)”.

`CC(C)NC(=O)c1ccccc1C(=O)Nc1ccc(C(F)(C(F)(F)F)C(F)(F)F)cc1Cl` [compound 46] was tested, and the “Insecticidal effect, Test Example 1” value [1, 4] was “A (100)” and the “Insecticidal effect, Test Example 3” value [2, 3] was “B (99-90)”.

For `CC(C)NC(=O)c1c(Cl)cccc1C(=O)Nc1ccc(C=C(Cl)C(F)(F)F)cc1` [compound 911], the “Insecticidal effect on diamondback moth” value [1] was “A (100)” and the “Insecticidal effect on rice leafroller” value [2] was “D (79-50)”.

With `Cc1cc(OC(F)F)ccc1NC(=O)c1cccc(OC(F)F)c1C(=O)NC(C)C` [compound 774] the “Insecticidal effect on diamondback moth” value [1] was “A (100)” and the “Insecticidal effect on rice leafroller” value [2] was “A (100)”.
